Experimental data as given in PMC8617944, “Preclinical Pharmacokinetics and Acute Toxicity in Rats of 5-{[(2E)-3-Bromo-3-carboxyprop-2-enoyl]amino}-2-hydroxybenzoic Acid: A Novel 5-Aminosalicylic Acid Derivative with Potent Anti-Inflammatory Activity” (Molecules, 2021).
Entries after “also recorded” stand apart in the source; their conditions may differ. Where two headings read alike, the source gives them in different places.

How the values were obtained:
[1] = Pharmacokinetic profiles after p.o., i.p. and i.v. administration; assay type: in vivo, Wistar rats; conditions: for absorption half-life: read-out: t1/2a, absorption half-life (converted); for Cmax: read-out: Cmax, maximum plasma concentration; for k el: read-out: Ke, elimination rate constant (converted); for MRT: read-out: MRT, mean residence time; for Tmax: read-out: tmax, time to maximum plasma concentration (converted); for Ka, absorption rate constant: non-compartmental
Description: On the same day as C1 administration, the rats (three groups, n = 6) were previously cannulated for compound administration by the p.o., i.p., and i.v. routes. A 24 G catheter was placed in the right lateral tail vein for blood collection. A first group of rats received a single dose of 50 mg/kg applied p.o. with a 20 G gavage needle. A dose of 75 mg/kg of C1 was injected i.p. into the rats in the second group. A single dose of 50 mg/kg was given i.v. to the third group by means of another catheter previously placed in the left lateral tail vein. The doses used in this study were selected based on previous pharmacokinetic studies reported in rats for 5-ASA [60] or for derivatives of this compound [61]. Animals were provided with the standard diet 4 h after dosing. […] The volume of blood removed was supplemented with an equal volume of 0.9% sodium chloride solution. The blood samples were centrifuged at 8000 rpm for 15 min to harvest 100 μL of plasma.
Plasma samples were processed immediately. Briefly, 450 µL of acetonitrile was added to 100 µL of plasma and vortexed for 5 min. Subsequently, 450 µL of methanol was added, and the sample was vortexed again, followed by centrifugation to precipitate the proteins. Finally, 10 µL of the supernatant were used for evaluation of the plasma concentration of C1 by RP-HPLC with the UV detection method, previously validated for the pharmacokinetic and complementary assays herein performed.
The plasma concentration–time data were plotted. […] Pharmacokinetic parameters of C1 were calculated on Kinetica 5.0 software (Adept Scientific Ltd), including the maximum plasma concentration (Cmax), time to maximum plasma concentration (tmax), elimination half-life (t1/2e), the area under the plasma concentration-time curve from time zero to the last measurable concentration (AUC0-t), the area under the plasma concentration-time curve from time zero to infinity (AUCtot), mean residence time (MRT), clearance (CL), and apparent volume of distribution (Vd).

[2] = system: 12-O-tetradecanoylphorbol acetate (TPA)-induced mouse ear edema; set-up: method as in ref 32, 33 = [32]; doi:10.1016/j.arabjc.2016.12.026; 32. Cabrera Pérez L.C. Gutiérrez Sánchez M. Mendieta Wejebe J.E. Hernández Rodríguez M. Fragoso Vázquez M.J. Salazar J.R. Correa Basurto J. Padilla Martínez I.I. Rosales Hernández M.C. Novel 5-aminosa || [33]; 33. Correa Basurto J. Rosales Hernández M.C. Mendieta Wejebe J.E. Trujillo Ferrara J.G. Padilla Martínez I.I. Ramírez Durán L.A. Alemán González Duhart D. Síntesis de un derivado del ácido 5-aminosali; conditions: cited from earlier work
myeloperoxidase (MPO) = system: myeloperoxidase (MPO); set-up: method as in ref 32, 33 = [32]; doi:10.1016/j.arabjc.2016.12.026; 32. Cabrera Pérez L.C. Gutiérrez Sánchez M. Mendieta Wejebe J.E. Hernández Rodríguez M. Fragoso Vázquez M.J. Salazar J.R. Correa Basurto J. Padilla Martínez I.I. Rosales Hernández M.C. Novel 5-aminosa || [33]; 33. Correa Basurto J. Rosales Hernández M.C. Mendieta Wejebe J.E. Trujillo Ferrara J.G. Padilla Martínez I.I. Ramírez Durán L.A. Alemán González Duhart D. Síntesis de un derivado del ácido 5-aminosali; conditions: o-dianisidine method; cited from earlier work
[3] = set-up: method as in ref 32 = [32]; doi:10.1016/j.arabjc.2016.12.026; 32. Cabrera Pérez L.C. Gutiérrez Sánchez M. Mendieta Wejebe J.E. Hernández Rodríguez M. Fragoso Vázquez M.J. Salazar J.R. Correa Basurto J. Padilla Martínez I.I. Rosales Hernández M.C. Novel 5-aminosa; conditions: Osiris Property Server Explorer; cited from earlier work
[4] = Wistar, rat, plasma, ip, 75 mg/kg, i.p. 75 mg/kg, n = 6
[5] = Wistar, rat, plasma, ip, 75 mg/kg, plasma, i.p. 75 mg/kg, n = 6, read-out: Average Concentration
[6] = Wistar, rat, plasma, ip, 75 mg/kg, plasma, i.p. 75 mg/kg, individual rats, read-out: Concentration (µg/mL), Rat 1-6
[7] = Wistar, rat, plasma, ip, i.p. 75 mg/kg, rats
[8] = Wistar, rat, plasma, iv, 50 mg/kg, i.v. 50 mg/kg, n = 6
[9] = Wistar, rat, plasma, iv, 50 mg/kg, plasma, i.v. 50 mg/kg, n = 6, read-out: Average Concentration
[10] = Wistar, rat, plasma, iv, 50 mg/kg, plasma, i.v. 50 mg/kg, individual rats, read-out: Concentration (µg/mL), Rat 1-6
[11] = Wistar, rat, plasma, iv, i.v. 50 mg/kg, rats
[12] = Wistar, rat, plasma, po, 50 mg/kg, i.g. (p.o.) 50 mg/kg, n = 6
[13] = Wistar, rat, plasma, po, 50 mg/kg, plasma, i.g. (p.o.) 50 mg/kg, individual rats, read-out: Concentration (µg/mL), Rat 1-6
[14] = Wistar, rat, plasma, po, 50 mg/kg, plasma, i.g. (p.o.) 50 mg/kg, n = 6, read-out: Average Concentration
[15] = Wistar, rat, plasma, po, p.o. 50 mg/kg, rats
[16] = two-compartment model, Kinetica 5.0

O=C(/C=C(/Br)C(=O)O)Nc1ccc(O)c(C(=O)O)c1 [Compound C1, 5-{[(2E)-3-bromo-3-carboxyprop-2-enoyl]amino}-2-hydroxybenzoic acid]
concentration at 5 min [1, 4]: 15900 ng/mL | concentration at 10 min [1, 4]: 17600 ng/mL | concentration at 30 min [1, 4]: 19900 ng/mL | concentration at 45 min [1, 4]: 17700 ng/mL | concentration at 60 min [1, 4]: 15200 ng/mL | concentration at 90 min [1, 4]: 11200 ng/mL | concentration at 120 min [1, 4]: 9000 ng/mL | concentration at 180 min [1, 4]: 5200 ng/mL | concentration at 240 min [1, 4]: 2900 ng/mL | absorption half-life ([1]; Wistar, rat, plasma, ip, 75 mg/kg, i.p. 75 mg/kg, rats): 1.3 ± 0.5 h | half-life ([1]; Wistar, rat, plasma, ip, 75 mg/kg, i.p. 75 mg/kg, rats, read-out: t1/2e, elimination half-life (converted)): 1.4 ± 0.2 h | concentration at 20 min [1, 5]: 19.8 µg/mL | concentration at 300 min [1, 6]: 0 µg/mL | concentration at 300 min [1, 5]: 0 µg/mL | concentration at 360 min [1, 6]: 0 µg/mL | concentration at 360 min [1, 5]: 0 µg/mL | concentration at 540 min [1, 6]: 0 µg/mL | concentration at 540 min [1, 5]: 0 µg/mL | concentration at 720 min [1, 6]: 0 µg/mL | concentration at 720 min [1, 5]: 0 µg/mL | Cmax [1, 7]: 22000 ± 1000 ng/mL | k el [1, 7]: 0.000139 s⁻¹ | MRT [1, 7]: 3.1 ± 0.9 h | Tmax [1, 7]: 0.55 h | concentration at 5 min [1, 8]: 10500 ng/mL | concentration at 10 min [1, 8]: 7800 ng/mL | concentration at 30 min [1, 8]: 5300 ng/mL | concentration at 45 min [1, 8]: 4200 ng/mL | concentration at 60 min [1, 8]: 4000 ng/mL | concentration at 90 min [1, 8]: 3400 ng/mL | concentration at 120 min [1, 8]: 2200 ng/mL | concentration at 180 min [1, 8]: 1500 ng/mL | concentration at 240 min [1, 8]: 1400 ng/mL | half-life ([1]; Wistar, rat, plasma, iv, 50 mg/kg, i.v. 50 mg/kg, rats, read-out: t1/2e, elimination half-life (converted)): ~0.9 h | concentration at 20 min [1, 9]: 6 µg/mL | concentration at 300 min [1, 9]: 1.2 µg/mL | concentration at 360 min [1, 9]: 0.756 µg/mL | concentration at 540 min [1, 10]: 0 µg/mL | concentration at 540 min [1, 9]: 0 µg/mL | concentration at 720 min [1, 10]: 0 µg/mL | concentration at 720 min [1, 9]: 0 µg/mL | clearance ([1]; Wistar, rat, plasma, iv, i.v. 50 mg/kg, rats, read-out: CL, clearance): 24 ± 5 mL/min | C0 ([1]; Wistar, rat, plasma, iv, i.v. 50 mg/kg, rats, read-out: Cp^0, initial plasma concentration): 11000 ± 1900 ng/mL | k el [1, 11]: 0.000222 s⁻¹ | MRT [1, 11]: 1.7 ± 0.4 h | Vd ([1]; Wistar, rat, plasma, iv, i.v. 50 mg/kg, rats, read-out: Vd, volume of distribution): 5.2 ± 0.9 L/kg | bioavailability ([1]; Wistar, rat, plasma, oral, 50 mg/kg, p.o. 50 mg/kg vs i.v. 50 mg/kg, rats, read-out: absolute oral bioavailability): ~77% | concentration at 5 min [1, 12]: 2200 ng/mL | concentration at 10 min [1, 12]: 2200 ng/mL | concentration at 30 min [1, 12]: 2500 ng/mL | concentration at 45 min [1, 12]: 2100 ng/mL | concentration at 60 min [1, 12]: 2100 ng/mL | concentration at 90 min [1, 12]: 1800 ng/mL | concentration at 120 min [1, 12]: 1500 ng/mL | concentration at 180 min [1, 12]: 1000 ng/mL | concentration at 240 min [1, 12]: 665 ng/mL | absorption half-life ([1]; Wistar, rat, plasma, po, 50 mg/kg, p.o. 50 mg/kg, rats): 1.4 ± 0.3 h | half-life ([1]; Wistar, rat, plasma, po, 50 mg/kg, p.o. 50 mg/kg, rats, read-out: t1/2e, elimination half-life (converted)): > 2.5 h | concentration at 20 min [1, 13]: 2.2 µg/mL | concentration at 20 min [1, 14]: 2.6 µg/mL | concentration at 300 min [1, 14]: 0.5 µg/mL | concentration at 360 min [1, 14]: 0.34 µg/mL | concentration at 540 min [1, 14]: 0.136 µg/mL | concentration at 600 min [1, 13]: 0 µg/mL | concentration at 600 min [1, 14]: 0 µg/mL | concentration at 720 min [1, 13]: 0 µg/mL | concentration at 720 min [1, 14]: 0 µg/mL | Cmax [1, 15]: 2800 ± 100 ng/mL | k el [1, 15]: 0.000111 s⁻¹ | MRT [1, 15]: 1.7 ± 0.2 h | Tmax [1, 15]: 0.55 h | half-life ([1]; Wistar, rat, plasma, two-compartment model, Kinetica 5.0, read-out: elimination half-life α (t1/2α)): 0.267 h | half-life ([1]; Wistar, rat, plasma, two-compartment model, Kinetica 5.0, read-out: elimination half-life β (t1/2β) (converted)): 3 h | AUCtot, area under the plasma concentration-time curve from time zero to infinity ([1]; i.p. 75 mg/kg, rats): 2780 ± 69 µg·min/mL | Ka, absorption rate constant ([1]; i.p. 75 mg/kg, rats): 1.4 ± 0.2 h⁻¹ | AUCtot, area under the plasma concentration-time curve from time zero to infinity ([1]; i.v. 50 mg/kg, rats): 806 ± 72 µg·min/mL | AUCtot, area under the plasma concentration-time curve from time zero to infinity ([1]; p.o. 50 mg/kg, rats): 618 ± 63 µg·min/mL | Ka, absorption rate constant ([1]; p.o. 50 mg/kg, rats): 0.9 ± 0.1 h⁻¹ | t1/2e, elimination half-life ([1]; p.o. 50 mg/kg, rats, 50 mg/kg): 2.5 ± 0.6 h | K12 [1, 16]: 0.018 min⁻¹ | K21 [1, 16]: 0.019 min⁻¹ | α [1, 16]: 0.042 min⁻¹ | anti-inflammatory activity [2]: anti-inflammatory agent in mice; also recorded: comparable to that of indomethacin; also recorded: exhibited anti-inflammatory activity | inhibition of myeloperoxidase (MPO) (myeloperoxidase (MPO)): comparable to that of indomethacin | predicted toxicity index [3]: low toxicity index
